Active and inactive are the calls of the source. The calls are words filed in the database; no cut-off is given here.
Columns and labels:
Gamma-secretase = test: Modulation of gamma-secretase activity (unknown origin) assessed as amyloid-beta(1-42) production by ELISA; assay type: protein-complex assay, Homo sapiens
Rattus norvegicus = test: Reduction of amyloid-beta peptides level in rat brain at 30 mg/kg, po; assay type: functional, organism-based

IC50 (Gamma-secretase) [nM]	SMILES	inhibition (Rattus norvegicus)
5	CNc1nc(Nc2ccc(-n3cnc(Cl)c3)c(OC)c2)nc2c1C=CCN=C2c1ccccc1	Active
21	COc1cc(Nc2nc3c(c(N(C)C)n2)C=CCN=C3c2ccccc2)ccc1-n1cnc(Cl)c1	Active
56	COc1cc(Nc2nc3c(c(N(C)C)n2)C=CCOC3c2ccccc2)ccc1-n1cnc(Cl)c1 (stereo unspecified)	–
36	COc1cc(Nc2nc3c(c(N(C)C)n2)C=CCNC3c2ccccc2)ccc1-n1cnc(Cl)c1 (stereo unspecified)	–

Reference: ChEMBL document CHEMBL3769330, “Synthesis of pyrimido[4,5-c]azepine- and pyrimido[4,5-c]oxepine-based γ-secretase modulators” (Bioorg Med Chem Lett, 2016)
